From ChEMBL document CHEMBL5543116, “Discovery of DNL343: A Potent, Selective, and Brain-Penetrant eIF2B Activator Designed for the Treatment of Neurodegenerative Diseases” (J Med Chem, 2024)
Values after ≈ are worked out from the molar mass of the structure shown.

What was measured:
[1] = Lipophilicity, log D of the compound at pH 7.4; format: physicochemical; settings: buffer
[2] = Kinetic solubility of compound; format: physicochemical; settings: read-out: Kinetic_solubility
[3] = Metabolic stability in human liver microsome assessed as hepatic clearance; format: ADME; settings: liver microsomes
[4] = Half life in rat at 1 mg/kg, iv by LC-MS/MS analysis; format: ADME, organism-based; settings: in vivo
[5] = Metabolic stability in rat liver microsome assessed as hepatic clearance; format: ADME; settings: liver microsomes
[6] = Volume of distribution at steady state in rat at 1 mg/kg, iv by LC-MS/MS analysis; format: ADME, organism-based; settings: in vivo, read-out: Vdss
[7] = Oral bioavailability in rat at 3 mg/kg by LC-MS/MS analysis; format: ADME, organism-based; settings: in vivo
[8] = Clearance in rat at 1 mg/kg, iv by LC-MS/MS analysis; format: ADME, organism-based; settings: in vivo

Q: For `O=C(COc1ccc(Cl)cc1)N[C@H]1CC[C@H](NC(=O)COc2ccc(Cl)cc2)CC1`, which logD [1] is on record?
A: 3.7

Q: What about the solubility kinetic [2] of the same compound?
A: < 1 µM

Q: For `O=C(NC12CC(c3nnc([C@H]4C[C@@H](OC(F)(F)F)C4)o3)(C1)C2)c1nc2cc(Cl)ccc2o1`, which CLhep predicted [3] is on record?
A: < 0.36 L/h/kg

Q: What does the source list for `O=C(COc1ccc(C(F)(F)F)cc1)NC12CC(c3nnc([C@H]4C[C@@H](OC(F)(F)F)C4)o3)(C1)C2`?
A: half-life [4]: 22.9 h; CLhep predicted [5]: < 1.02 L/h/kg; Vd [6]: 0.26 L/kg; CLhep predicted [3]: < 0.36 L/h/kg; bioavailability [7]: 39%; clearance [8]: 0.024 L/h/kg

Q: For `O=C(COc1ccc(Cl)cc1)NC12CC(NC(=O)COC3CCC3)(C1)C2`, which logD [1] is on record?
A: 2.9

Q: And the solubility kinetic [2]?
A: 141 µM (≈ 53.4 µg/mL)

Q: Which logD [1] does the source give for `O=C(COc1ccc(Cl)cc1)NC12CCC(NC(=O)COc3ccc(Cl)cc3)(CC1)C2` here?
A: 4.6

Q: What about the solubility kinetic [2] of the same compound?
A: < 1 µM

Q: For `O=C(COc1ccc(Cl)c(F)c1)NC12CC(N3C[C@H]([C@H]4C[C@@H](OC(F)(F)F)C4)OC3=O)(C1)C2`, which CLhep predicted [3] is on record?
A: 0.9 L/h/kg

Q: Which CLhep predicted [3] does the source give for `O=C(NC12CC(c3nnc([C@H]4C[C@@H](OC(F)(F)F)C4)o3)(C1)C2)c1cnc2cc(Cl)ccc2c1` here?
A: 0.66 L/h/kg

Q: What does the source list for `O=C(COc1ccc(Cl)cc1)NC12CC(NC(=O)COC3CC3)(C1)C2`?
A: logD [1]: 2.6; solubility kinetic [2]: 181 µM (≈ 66 µg/mL)

Q: With `O=C(COCC1CC1)NC12CC(NC(=O)COc3ccc(Cl)cc3)(C1)C2` as the compound, how does the logD [1] read?
A: 2.9

Q: And the solubility kinetic [2]?
A: 184 µM (≈ 69.7 µg/mL)

Q: For `O=C(NC12CC(c3nnc([C@H]4C[C@@H](OC(F)(F)F)C4)o3)(C1)C2)C1CCc2cc(Cl)ccc2O1` (stereo not given in full), which CLhep predicted [3] is on record?
A: 0.72 L/h/kg
